Data taken from ChEMBL document CHEMBL3351529, “Triazolopyridyl ketones as a novel class of antileishmanial agents. DNA binding and BSA interaction” (Bioorg Med Chem, 2014).
Active and inactive are the calls of the source. The rule behind the calls is not given here.

Key:
[1] = Selectivity index, ratio of CC50 for mouse J774 cells to IC50 for promastigote form of Leishmania guyanensis 141/93; assay type: functional
[2] = Cytotoxicity against mouse J774 cells assessed as reduction in cell viability after 24 hrs by resazurin fluorescence assay; assay type: cell-based
[3] = Selectivity index, ratio of CC50 for mouse J774 cells to IC50 for promastigote form of Leishmania amazonensis MHOM/Br/79/Maria; assay type: functional
Leishmania amazonensis [4] = assay: Antileishmanial activity against promastigote form of Leishmania amazonensis MHOM/Br/79/Maria after 48 hrs by resazurin fluorescence assay; assay type: functional, organism-based
Leishmania guyanensis = assay: Antileishmanial activity against promastigote form of Leishmania guyanensis 141/93 after 48 hrs by resazurin fluorescence assay; assay type: functional, organism-based; conditions: 141/93, 48 h
Leishmania braziliensis = assay: Antileishmanial activity against promastigote form of Leishmania braziliensis 2903 after 48 hrs by resazurin fluorescence assay; assay type: functional, organism-based; conditions: Leishmania braziliensis, 2903, 48 h
Leishmania infantum [5] = assay: Antileishmanial activity against promastigote form of Leishmania infantum MCAN/ES/96/BCN150 after 48 hrs by resazurin fluorescence assay; assay type: functional, organism-based
[6] = Selectivity index, ratio of CC50 for mouse J774 cells to IC50 for promastigote form of Leishmania braziliensis 2903; assay type: functional
Calf thymus DNA [7] = assay: Binding affinity to calf thymus DNA at 10 uM by UV-visible titration method; assay type: nucleic-acid assay; conditions: Bos taurus
[8] = Selectivity index, ratio of CC50 for mouse J774 cells to IC50 for promastigote form of Leishmania infantum MCAN/ES/96/BCN150; assay type: functional
Calf thymus DNA [9] = assay: Binding affinity to calf thymus DNA assessed as hypochromic effect at DNA-compound ratio of 3 by UV-visible titration method; assay type: nucleic-acid assay; conditions: Bos taurus
Calf thymus DNA [10] = assay: Binding affinity to calf thymus DNA by UV-visible titration method; assay type: nucleic-acid assay; conditions: Bos taurus
Albumin [11] = target: T1, Albumin (Bos taurus, UniProt P02769); assay: Binding affinity to bovine serum albumin assessed as quenching constant after 10 mins by Stern-Volmer plot method; assay type: ADME; conditions: cattle, isolated protein
T1 sequence (P02769 whole entry): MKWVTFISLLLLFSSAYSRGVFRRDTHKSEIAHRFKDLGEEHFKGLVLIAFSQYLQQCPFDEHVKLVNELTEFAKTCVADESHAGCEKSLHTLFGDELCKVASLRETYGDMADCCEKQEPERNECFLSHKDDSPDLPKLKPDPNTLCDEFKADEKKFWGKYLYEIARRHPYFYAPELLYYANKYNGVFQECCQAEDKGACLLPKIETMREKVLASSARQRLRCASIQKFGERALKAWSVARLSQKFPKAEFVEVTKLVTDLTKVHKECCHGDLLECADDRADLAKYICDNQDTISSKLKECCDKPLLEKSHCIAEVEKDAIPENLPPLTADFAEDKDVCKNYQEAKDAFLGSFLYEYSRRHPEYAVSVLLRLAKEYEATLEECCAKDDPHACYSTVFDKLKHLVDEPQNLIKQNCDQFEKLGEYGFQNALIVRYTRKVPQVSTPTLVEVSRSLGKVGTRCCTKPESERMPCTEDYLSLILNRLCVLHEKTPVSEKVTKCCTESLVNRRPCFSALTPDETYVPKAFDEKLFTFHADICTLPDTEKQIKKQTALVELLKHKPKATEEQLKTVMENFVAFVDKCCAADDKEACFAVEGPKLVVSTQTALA

Leishmania infantum [12] = assay: Antileishmancidal activity against amastigote form of Leishmania infantum MCAN/ES/96/BCN150 infected in BALB/c mouse assessed as reduction of parasite burden in liver at 5 mg/kg, ip qd for 5 consecutive days starting 21 days post infection measured after 7 days relative to untreated control; assay type: functional
Bos taurus = organism: Bos taurus; assay: Effect on calf thymus DNA viscosity at 1 to 10 uM
Albumin [13] = target: T1, Albumin; assay: Competitive binding affinity to bovine serum albumin site 1 assessed as quenching constant after 10 mins by fluorimetric titration method in presence of warfarin; assay type: ADME; conditions: cattle, isolated protein
Leishmania infantum [14] = assay: Antileishmancidal activity against amastigote form of Leishmania infantum MCAN/ES/96/BCN150 infected in BALB/c mouse assessed as reduction of parasite burden in spleen at 5 mg/kg, ip qd for 5 consecutive days starting 21 days post infection measured after 7 days relative to untreated control; assay type: functional; parameters: scale not given: the % may be the effect or the level left; conditions: route intraperitoneal
[15] = Selectivity index, ratio of CC50 for mouse J774 cells to IC50 for amastigote form of Leishmania infantum MCAN/ES/96/BCN150 infected in mouse J774 cells; assay type: functional
Leishmania infantum [16] = assay: Antileishmanial activity against amastigote form of Leishmania infantum MCAN/ES/96/BCN150 infected in mouse J774 cells assessed as reduction in intracellular amastigotes compound treated for 48 hrs followed by 3 days incubation for transformation by resazurin fluorescence assay; assay type: functional, organism-based; conditions: MCAN/ES/96/BCN150, J774
Leishmania amazonensis [17] = assay: Antileishmanial activity against amastigote form of Leishmania amazonensis MHOM/Br/79/Maria infected in mouse J774 cells assessed as reduction in intracellular amastigotes compound treated for 48 hrs followed by 3 days incubation for transformation by resazurin fluorescence assay; assay type: functional, organism-based
Albumin [18] = target: T1, Albumin; assay: Competitive binding affinity to bovine serum albumin site 2 assessed as quenching constant after 10 mins by fluorimetric titration method in presence of ibuprofen; assay type: ADME; conditions: cattle, isolated protein
Albumin [19] = target: T1, Albumin; assay: Binding affinity to bovine serum albumin after 10 mins by fluorimetric titration method; assay type: ADME; conditions: cattle, isolated protein
[20] = Selectivity index, ratio of CC50 for mouse J774 cells to IC50 for amastigote form of Leishmania amazonensis MHOM/Br/79/Maria infected in mouse J774 cells; assay type: functional
Mus musculus [21] = assay: Toxicity in BALB/c mouse assessed as gross weight loss at 5 mg/kg, ip qd for 5 consecutive days; assay type: organism-based; parameters: dose 5 mg/kg, route intraperitoneal; conditions: in vivo
Mus musculus [22] = assay: Toxicity in BALB/c mouse assessed as hair loss at 5 mg/kg, ip qd for 5 consecutive days; assay type: organism-based; parameters: dose 5 mg/kg, route intraperitoneal; conditions: in vivo
[23] = Leishmania amazonensis, MHOM/Br/79/Maria, 48 h, read-out: IC50
[24] = Leishmania infantum, MCAN/ES/96/BCN150, 48 h, read-out: IC50

Activity (Calf thymus DNA [9]) [%]	Kb (Calf thymus DNA [10]) [×10⁵ /M]	KSV (Albumin [11]) [×10⁵ /M]	Activity (Bos taurus)	Kb (Albumin [13]) [×10³ /M]	Kb (Albumin [18]) [×10³ /M]	Kb (Albumin [19]) [×10⁴ /M]	Kq (Albumin [19]) [×10¹³ /M/sec]	Compound	Ratio CC50/IC50 [1]	CC50 at 24 h [2] [µM]	Ratio CC50/IC50 [3]	IC50 (Leishmania amazonensis [4]; [23]) [µM]	IC50 (Leishmania guyanensis) [µM]	IC50 (Leishmania braziliensis) [µM]	IC50 (Leishmania infantum [5]; [24]) [µM]	Ratio CC50/IC50 [6]	Ratio CC50/IC50 [8]	Activity (Leishmania infantum [14]) [%]	Ratio CC50/IC50 [15]	IC50 (Leishmania infantum [16]) [µM]	other results
–	–	–	–	–	–	–	–	O=C(c1ccccn1)c1cccc(-c2nnn3ccccc23)n1	>2.8	≥ 300	>2.8	108	109	190	231	>1.6	>1.3	–	–	–	Activity (Calf thymus DNA [7]): inactive
60	3.26	2.4	inactive	8.2	3.8	1.9	2.4	O=C(c1cccc(C(=O)c2cccc(-c3nnn4ccccc34)n2)n1)c1cccc(-c2nnn3ccccc23)n1	>10.4	≥ 300	>5.6	53.7	28.7	59.4	99.8	>5.1	>3	78.2	>7.9	38	Activity (Leishmania infantum [12]): inactive; IC50 (Leishmania amazonensis [17]; j774): Not Active
–	–	–	–	–	–	–	–	CCCCCCCCCCCCCCCCOP(=O)([O-])OCC[N+](C)(C)C [MILTEFOSINE]	3.1	164	5.8	28.3	53.6	27.1	21.3	6	7.7	–	5.7	–	Ratio CC50/IC50 [20]: 6.5
60	1.14	2.6	inactive	9.3	5.3	2.5	2.6	O=C(c1cccc(-c2nnn3ccccc23)n1)c1cccc(-c2nnn3ccccc23)n1	>10.2	≥ 300	>3.3	89.6	29.3	26.8	47.3	>11.2	>6.3	99.3	>15.3	19.5	Activity (Mus musculus [21]): Non-toxic; Activity (Leishmania infantum [12]; route intraperitoneal): 92.8%; IC50 (Leishmania amazonensis [17]; Leishmania amazonensis, MHOM/Br/79/Maria, J774, read-out: IC50): 115 µM; Activity (Mus musculus [22]): Non-toxic; Ratio CC50/IC50 [20]: >2.6
–	–	–	–	–	–	–	–	O=C(c1ccccn1)c1cccc2c(-c3ccccc3)nnn12	>2.4	≥ 300	>2.8	106	126	169	173	>1.8	>1.9	–	–	–	–
–	–	–	–	–	–	–	–	O=C(c1cccc2c(-c3ccccc3)nnn12)c1cccc2c(-c3ccccc3)nnn12	>4.5	≥ 300	–	–	53.8	56.8	–	>2.5	–	–	–	–	IC50 (Leishmania amazonensis [4]): Not Active; IC50 (Leishmania infantum [5]): Not Active
